Data published in patent US20210330611A1, “THERAPY FOR NEUROLOGICAL DISEASES/DISORDERS” (priority 2020, published 2021).
Where a name gives a salt, the structure may show the parent alone. Read-outs that look alike come from different tables or passages of the source.

Columns and labels:
[1] = test system: fibrin- and LPS-induced microglia activation; experiment: cells; assay type: cell-based, rat
[2] = test system: LPS-induced microglia activation; experiment: Image-based assay of LPS-induced microglia activation (HTS and dose response); assay type: cell-based, rat; details: for inhibition at 10 µM: Rattus norvegicus, Microglia, read-out: LPS % inhibition
[3] = test system: fibrin-induced microglia activation; experiment: Image-based assay of fibrin-induced microglia activation (HTS and dose response); assay type: cell-based, rat; details: for inhibition at 10 µM: Rattus norvegicus, Microglia, read-out: Fibrin % inhibition
primary rat microglia [4] = test system: primary rat microglia;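 on Fibrin % cell toxicity: share of dead cells sized under 150 µm2 at 10 µM in fibrin-stimulated microglia HTS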
primary rat microglia [5] = test system: primary rat microglia; remark: listed apart in the source;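 on Fibrin % cell toxicity: share of dead cells sized under 150 µm2 at 10 µM in fibrin-stimulated microglia HTS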
[6] = HTS of 1907 compounds, quadrant by fibrin and LPS inhibition
[7] = primary microglia HTS, 10 μM, LPS-stimulated, cell size >800 μm^2 as marker of activation
[8] = primary microglia HTS, 10 μM, fibrin-stimulated, cell size >800 μm^2 as marker of activation
[9] = quadrant by fibrin and LPS inhibition, HTS at 10 μM
[10] = primary microglia HTS, LPS stimulation, compounds at 10 μM
[11] = primary microglia HTS, fibrin stimulation, compounds at 10 μM

Row | SMILES | Quadrant (FIG. 5b) [1] | inhibition at 10 µM [2] | inhibition at 10 µM [3] | Fibrin % cell toxicity (primary rat microglia [4]; rat) | LPS % cell toxicity (primary rat microglia [5]; rat) | Quadrant (FIG. 5b) [1, 6] | inhibition at 10 µM [2, 7] | inhibition at 10 µM [3, 8] | other results
1 | CN1C(C(=O)Nc2ccccn2)=C(O)c2sccc2S1(=O)=O [Tenoxicam] | Q4 | 15% | 11% | 1% | 0% | – | – | – | –
2 | COc1cc2nc(N3CCN(C(=O)C4CCCO4)CC3)nc(N)c2cc1OC (centres unmarked) [Terazosin] | Q4 | 9% | -1% | 1% | 0% | – | – | – | –
3 | CN(C)[C@@H]1C(O)=C(C(N)=O)C(=O)[C@@]2(O)C(O)=C3C(=O)c4c(O)cccc4[C@@](C)(O)[C@H]3C[C@@H]12 [Tetracycline] | Q4 | 19% | 7% | 0% | 0% | – | – | – | –
4 | c1ccc(C2CN3CCSC3=N2)cc1 (centres unmarked) [Tetramizole Hydrochloride] | Q2 | 112% | 107% | 8% | 5% | – | – | – | –
5 | O=C1CCC(N2C(=O)c3ccccc3C2=O)C(=O)N1 (centres unmarked) [Thalidomide] | – | – | – | 0% | 1% | Q4 | 23% | 8% | –
6 | CCCC(C)C1(CC)C(=O)NC(=S)NC1=O (centres unmarked) [Thiopental] | Q4 | 13% | 3% | 0% | 0% | – | – | – | –
7 | S=P(N1CC1)(N1CC1)N1CC1 [Thiotepa] | – | – | – | 1% | 1% | Q4 | 15% | -15% | –
8 | CN1CCN(CC/C=C2/c3ccccc3Sc3ccc(S(=O)(=O)N(C)C)cc32)CC1 [Thiothixene] | – | – | – | 0% | 0% | Q4 | 37% | -4% | –
9 | CN(C)C(=S)SSC(=S)N(C)C [Thiram] | – | – | – | 91% | 64% | – | – | – | Quadrant (FIG. 5b) [1, 9]: Q2; inhibition at 10 µM [2, 10]: 126%; inhibition at 10 µM [3, 11]: 109%
10 | COc1ccc(CN(CCN(C)C)c2ncccn2)cc1 [Thonzylamine Hydrochloride] | – | – | – | 0% | 0% | Q4 | 6% | -21% | –
11 | Cc1ccc(C(C)C)c(O)c1 [Thymol] | – | – | – | 1% | 0% | Q4 | 20% | 15% | –
12 | Clc1ccc2nsnc2c1NC1=NCCN1 [Tizanidine] | Q4 | 2% | 2% | 1% | 1% | – | – | – | –
13 | CCCCNC(=O)NS(=O)(=O)c1ccc(C)cc1 [Tolbutamide] | Q4 | 24% | 31% | 1% | 0% | – | – | – | –
14 | Cc1ccc(C(=O)c2cc(O)c(O)c([N+](=O)[O-])c2)cc1 [Tolcapone] | – | – | – | 1% | 0% | Q4 | 9% | -43% | –
15 | Cc1c(Cl)cccc1Nc1ccccc1C(=O)O [Tolfenamic Acid] | – | – | – | 1% | 1% | Q4 | 36% | 3% | –
16 | Cc1ccc(C(=O)c2ccc(CC(=O)O)n2C)cc1 [Tolmetin] | – | – | – | 0% | 0% | Q4 | 28% | 48% | –
17 | CC[C@@]1(O)C(=O)OCc2c1cc1n(c2=O)Cc2cc3c(CN(C)C)c(O)ccc3nc2-1 [Topotecan, Topotecan Hydrochloride] | – | – | – | – | – | – | – | – | Quadrant (FIG. 5b) [1, 9]: Q2; LPS % inhibition [2, 10]: 112%; Fibrin % inhibition [3, 11]: 112%; Fibrin % cell toxicity (primary rat microglia [4]): 63%; LPS % cell toxicity (primary rat microglia [5]): 40%
18 | CN(C)CCOc1ccc(/C(=C(/CCCl)c2ccccc2)c2ccccc2)cc1 [Toremifene] | Q4 | 19% | 14% | 1% | 0% | – | – | – | –
19 | CCOC(=O)[C@H](CCc1ccccc1)N[C@@H](C)C(=O)N1[C@H](C(=O)O)C[C@H]2CCCC[C@@H]21 [Trandolapril] | Q4 | 15% | -5% | 1% | 0% | – | – | – | –

Row | SMILES | Quadrant (FIG. 5b) [1] | inhibition at 10 µM [2] | inhibition at 10 µM [3] | Fibrin % cell toxicity (primary rat microglia [4]; rat) | LPS % cell toxicity (primary rat microglia [5]; rat) | Quadrant (FIG. 5b) [1, 6] | inhibition at 10 µM [2, 7] | inhibition at 10 µM [3, 8] | other results
20 | NC[C@H]1CC[C@H](C(=O)O)CC1 [Tranexamic Acid] | Q4 | 13% | -4% | 1% | 0% | – | – | – | –
21 | N[C@@H]1C[C@H]1c1ccccc1.N[C@H]1C[C@@H]1c1ccccc1.O=S(=O)(O)O [Tranylcypromine Sulfate] | Q4 | – | – | – | – | – | – | – | LPS % inhibition ([2]; 10 µM): 17%; Fibrin % inhibition ([3]; 10 µM): 3%; Fibrin % cell toxicity (primary rat microglia [4]): 0%; LPS % cell toxicity (primary rat microglia [5]): 0%
22 | O=c1n(CCCN2CCN(c3cccc(Cl)c3)CC2)nc2ccccn12 [Trazodone] | Q4 | -2% | -10% | 0% | 0% | – | – | – | –
23 | CC1=C(/C=C/C(C)=C/C=C/C(C)=C/C(=O)O)C(C)(C)CCC1 [Tretinon, Tretinoin] | – | – | – | – | – | Q4 | – | – | LPS % inhibition [2, 7]: 34%; Fibrin % inhibition [3, 8]: 27%; Fibrin % cell toxicity (primary rat microglia [4]): 1%; LPS % cell toxicity (primary rat microglia [5]): 1%
24 | Nc1nc(N)c2nc(-c3ccccc3)c(N)nc2n1 [Triamterene] | – | – | – | 1% | 0% | Q4 | 24% | 40% | –
25 | NCCNCCNCCN [Triethylenetetramine] | Q4 | 10% | 3% | 1% | 0% | – | – | – | –
26 | O=c1[nH]c(=O)n([C@H]2C[C@H](O)[C@@H](CO)O2)cc1C(F)(F)F [Trifluridine] | – | – | – | 1% | 1% | Q4 | 16% | 10% | –
27 | OC(CCN1CCCCC1)(c1ccccc1)C1CCCCC1 (centres unmarked) [Trihexyphenidyl] | Q4 | 14% | 5% | 1% | 1% | – | – | – | –
28 | CCC(COC(=O)c1cc(OC)c(OC)c(OC)c1)(c1ccccc1)N(C)C (centres unmarked) [Trimebutine] | – | – | – | 1% | 0% | Q4 | 13% | -11% | –
29 | COc1cc(Cc2cnc(N)nc2N)cc(OC)c1OC [Trimethoprim] | Q4 | 17% | -26% | 0% | 0% | – | – | – | –
30 | C[N+](C)(C)CC(=O)O [Trimethyl Glycine] | Q4 | – | – | – | – | – | – | – | LPS % inhibition ([2]; 10 µM): 22%; Fibrin % inhibition ([3]; 10 µM): −14%; Fibrin % cell toxicity (primary rat microglia [4]): 0%; LPS % cell toxicity (primary rat microglia [5]): 0%
31 | Cc1ccc(/C(=C\CN2CCCC2)c2ccccn2)cc1 [Triprolidine] | – | – | – | 1% | 0% | Q4 | 23% | -24% | –
32 | NC(CO)(CO)CO [Tris] | Q4 | – | – | – | – | – | – | – | LPS % inhibition ([2]; 10 µM): 41%; Fibrin % inhibition ([3]; 10 µM): −18%; Fibrin % cell toxicity (primary rat microglia [4]): 1%; LPS % cell toxicity (primary rat microglia [5]): 1%
33 | O=c1[nH]c(=O)n(Cl)c(=O)n1Cl [Troclosene Potassium] | Q4 | 1% | -8% | 1% | 0% | – | – | – | –
34 | N[C@@H](Cc1c[nH]c2ccccc12)C(=O)O [Tryptophan] | – | – | – | 1% | 0% | Q4 | 16% | -6% | –
35 | N[C@@H](Cc1ccc(O)cc1)C(=O)O [Tyrosine] | – | – | – | 1% | 1% | Q4 | 21% | -7% | –
36 | CCCC(CCC)C(=O)O [Valproic Acid] | – | – | – | 0% | 0% | Q4 | 27% | -28% | –
37 | CN[C@H](CC(C)C)C(=O)N[C@H]1C(=O)N[C@@H](CC(N)=O)C(=O)N[C@H]2C(=O)N[C@H]3C(=O)N[C@H](C(=O)N[C@H](C(=O)O)c4cc(O)cc(O)c4-c4cc3ccc4O)[C@H](O)c3ccc(c(Cl)c3)Oc3cc2cc(c3O[C@@H]2O[C@H](CO)[C@@H](O)[C@H](O)[C@H]2O[C@H]2C[C@](C)(N)[C@H](O)[C@H](C)O2)Oc2ccc(cc2Cl)[C@H]1O [Vancomycin Hydrochloride] | Q4 | – | – | 1% | 0% | – | – | – | LPS % inhibition ([2]; 10 µM): 9%; Fibrin % inhibition ([3]; 10 µM): −20%
